Reference: patent publication US9833447B2, “5-HT4 receptor agonist for gastroparesis” (RAQUALIA PHARMA INC., priority 2014, dated 2017)
Entries after “also recorded” stand apart in the source; their conditions may differ.

Tests used:
[1] = test system: clonidine-induced gastroparesis model in dogs; experiment: Gastric emptying rates in conscious dogs, clonidine-induced gastroparesis model (acetaminophen method); type: in vivo, beagle dogs; details: clonidine 0.01 mg/kg s.c.
Method: Measurement of Gastric Emptying Rates in Conscious Dogs
All dogs are purchased from Kitayama Labes Co., Ltd. (Oriental Yeast Co., Ltd.). The animals are acclimatized to the laboratory conditions during experiments.
Dogs are fasted overnight, and then they are fed the test meal (10 mL/kg), which is ingested within 3 minutes. Blood samples are obtained at 0, 15, 30, 45, 60, 75, and 90 minutes after test meal administration. To provide a model of gastroparesis, 0.01 mg/kg of clonidine (alpha2 adrenergic agonist, Wako Pure Chemical Industries, Ltd., Osaka, Japan) is injected subcutaneously 30 minutes before test meal administration. […] Plasma is separated from the blood by centrifugation at 3,000 g for 5 min at 4° C. (himac CF15D, Hitachi Koki Co., Ltd., Tokyo, Japan). The plasma acetaminophen concentration is measured by LC-mass spectrometry.
Aliquots of dog plasma (50 microL) and 50 microL of internal standard (IS)* solution are mixed and vortexed well, and then they are diluted to a final volume of 750 microL with 50 mM ammonium acetate. As IS, [D4]4-acetamidophenol is used. Following conditioning of the solid phase extraction (SPE) 96 well plate (OASIS HLB, 10 mg/well, 30 microm, Waters Corporation, Milford, Mass., USA) with 700 microL methanol and 700 microL water in sequence, 750 microL of the plasma samples are transferred to the SPE plate for extraction. The SPE plate is then washed with 700 microL of 5% methanol. Samples are eluted twice off the SPE plate into a clean 96 deep well plate by addition of 250 microL of methanol. The eluent is then evaporated to dryness under 40° C. gentle stream of nitrogen, and reconstituted in 100 microL of acetonitrile/10 mM ammonium acetate (1/9, v/v). The samples are injected into HPLC column, and then the effluent from HPLC column is directly introduced into the turboionspray ion source, which is operated at the following conditions: * 300 ng/mL [D4]4-acetamidophenol: 10% methanol solution.

[2] = test system: patients with gastroparesis; experiment: Gastric emptying rates in patients with gastroparesis (SmartPill); type: in vivo, human
Method: Measurement of Gastric Emptying Rates in Patients with Gastroparesis Clinical studies in patients with gastroparesis are conducted. Effect of Compound A on gastric emptying time (GET) is confirmed with SmartPill (Registered Trademark, Given Imaging Ltd.). SmartPill is an ingestible capsule that measures pressure, pH and temperature as it travels through the gastrointestinal (GI) tract to assess GI motility. The SmartPill motility monitoring test can be performed at a clinic or physician's office to evaluate motility disorders like gastroparesis (a condition in which the contents of the stomach empty too slowly) and chronic constipation. An improved gastric emptying time and colonic transit time are observed in the clinical studies.

[3] = test system: healthy male human subjects; experiment: Gastric emptying rates in healthy male human subjects (13C-breath test, BreathID); type: in vivo
Method: Measurement of Gastric Emptying Rates in Human Study Population
Healthy male subjects, who aged between 18 and 55 years old and have a normal gastric emptying (GE) rate, are screened and enrolled into the study.
Subjects are given single oral doses of Compound A at 0.6 and 3 microg. Subjects swallowed dosing solution (20 mL) of appropriate Compound A concentrations. The dosing bottle is rinsed with 20 mL of water, and this rinse is swallowed by the subjects. The subjects then swallowed 200 mL of room temperature water, resulting in a total fluid intake at dosing of 240 mL.
GE is monitored with ^13C-breath test using the BreathiD system (Exalenz Bioscience Inc., Modin, Israel), which enables to continuously analyze the subject's breath for exhaled CO2 via a nasal cannula using molecular correlation spectrometry at the bedside. […] GE rate of solids is evaluated over the 4 hours period following ingestion of a standardized solid test meal, which are comprised of 2 slices of bread, 1 egg and 150 mL water including an egg yolk that have been mixed with 100 mg ^13C-octanoic acid (total calorific intake of 200-300 kcal). […] The parameters for GE of gastric half emptying time (GET1/2), lag phase (Tlag), gastric emptying coefficient (GEC) and gastric emptying area under the effect curve (AUEC) are automatically calculated.

With `COc1cc(N)c(Cl)cc1C(=O)NC1CCN(CCCOc2ccc(F)cc2)CC1OC` (stereo not shown) [Cisapride, cisapride, reference compound] the “Effect on delayed gastric emptying induced by clonidine (plasma acetaminophen)” value ([1]; cisapride 1, 3 mg/kg p.o.) was “reversed delayed gastric emptying”.

For `Clc1cccc(Cl)c1N=C1NCCN1` [clonidine, reference compound], the “Plasma APAP concentration at 60 min after meal administration” value ([1]; gastroparesis model induction) was “significantly decreased”.

For `O=C(O)C1(CN2CCC(COc3noc4cccc(OCC(F)(F)F)c34)CC2)CCOCC1` [Compound A, 4-{[4-({[4-(2,2,2-trifluoroethoxy)-1,2-benzisoxazol-3-yl]-oxy}methyl)piperidin-1-yl]methyl}tetrahydro-2H-pyran-4-carboxylic acid], the “Effect on delayed gastric emptying induced by clonidine (plasma acetaminophen)” value ([1]; Compound A 0.3 microg/kg p.o.) was “significantly restored delayed gastric emptying induced by clonidine (0.01 mg/kg) to the normal levels; also recorded: equivalent to that of cisapride (1 mg/kg, p.o.)”, the Colonic transit time [2] was “improved” and the “Gastric emptying time (GET)” value [2] was “improved”. For the same molecule, the “Severe Adverse Events and undesirable adverse events including QT/QTc prolongation” value ([3]; even at supratherapeutic doses, human healthy subjects) was “No Severe Adverse Events (SAEs) and undesirable adverse events” and the “Absolute change from baseline in gastric half emptying time (GET1/2)” value ([3]; single oral doses 0.6 and 3 microg, healthy male human subjects) was “clearly observed; also recorded: improved”.
